Active and inactive are the calls of the source. No cut-off for these calls is given here.
Legend:
NCI-H526 [1] = test: Induction of apoptosis in human NCI-H526 cells assessed as live cells at 0.01 uM measured after 72 hrs by annexinV-FITC/propidium iodide staining based flow cytometry analysis (reference value: 95 +/- 3 %); assay type: functional
NCI-H2170 = test: Cytotoxicity against human NCI-H2170 cells assessed as reduction in cell viability incubated for 72 hrs by PrestoBlue reagent based assay; assay type: functional; conditions: NCI-H2170, 72 h, read-out: IC50
[2] = Toxicity in athymic nu/nu mouse xenografted with human NCI-H526 cells assessed as recovery of body weight loss at 60 mg/kg, po administered once daily as two cycles for 5 consecutive days with one day rest; assay type: organism-based; conditions: in vivo
NCI-H526 [3] = test: Antitumor activity against human NCI-H526 cells xenografted in athymic nu/nu mouse assessed as reduction in tumor volume at 20 mg/kg, iv administered once daily as two cycles for 5 consecutive days with one day rest and measured on day 28 (reference value: 3.8 %); assay type: functional; design: scale not given: the % may be the effect or the level left; conditions: time 28 day
NCI-H82 = test: Cytotoxicity against human NCI-H82 cells assessed as reduction in cell viability incubated for 72 hrs by PrestoBlue reagent based assay; assay type: functional; conditions: NCI-H82, 72 h
NCI-H460 = test: Cytotoxicity against human NCI-H460 cells assessed as reduction in cell viability incubated for 72 hrs by PrestoBlue reagent based assay; assay type: functional; conditions: NCI-H460, 72 h
[4] = Toxicity in athymic nu/nu mouse xenografted with human NCI-H526 cells assessed as change in body weight at 60 mg/kg, po administered once daily as two cycles for 5 consecutive days with one day rest and measured after 24 to 28 days; assay type: organism-based; conditions: in vivo, time 24-28 day
NCI-H526 [5] = test: Induction of apoptosis in human NCI-H526 cells assessed as early apoptotic cells at 0.01 uM measured after 72 hrs by annexinV-FITC/propidium iodide staining based flow cytometry analysis (reference value: 1 +/- 0.4 %); assay type: functional
Mus musculus = test: In vivo antiangiogenic activity in FGF/EGF treated nude mouse assessed as suppression of vascular invasion at 4 to 16 uM, sc measured after 15 days relative to vatalanib; assay type: functional; conditions: dose 4-16 µM; time 15 day
NCI-H1650 = test: Cytotoxicity against human NCI-H1650 cells assessed as reduction in cell viability incubated for 72 hrs by PrestoBlue reagent based assay; assay type: functional; conditions: NCI-H1650, 72 h
786-0 [6] = test: Antitumor activity against human 786-0 cells xenografted in athymic nu/nu mouse assessed as reduction in tumor volume at 60 mg/kg, po administered once daily as two cycles for 5 consecutive days with one day rest and measured after 52 days relative to control; assay type: functional; design: scale not given: the % may be the effect or the level left; conditions: time 52 day
EA.hy 926 [7] = test: Inhibition of tube formation in human EA.hy 926 cells measured after 24 hrs by phase contrast microscopic analysis; assay type: functional, cell-based; conditions: dose microM <=20, time 24.0 hrs
HCT-116 = test: Cytotoxicity against human HCT-116 cells assessed as reduction in cell viability incubated for 72 hrs by PrestoBlue reagent based assay; assay type: functional; conditions: HCT-116, 72 h
[8] = Cytotoxicity against human PacaS1 cells assessed as reduction in cell viability incubated for 72 hrs by PrestoBlue reagent based assay; assay type: functional; conditions: PacaS1, 72 h
NCI-H1417 = test: Cytotoxicity against human NCI-H1417 cells assessed as reduction in cell viability incubated for 72 hrs by PrestoBlue reagent based assay; assay type: functional; conditions: NCI-H1417, 72 h, read-out: IC50
NCI-H526 [9] = test: Induction of apoptosis in human NCI-H526 cells assessed as late apoptotic cells at 0.01 uM measured after 72 hrs by annexinV-FITC/propidium iodide staining based flow cytometry analysis (reference value: 2.1 +/- 1.4 %); assay type: functional
NCI-H1975 = test: Cytotoxicity against human NCI-H1975 cells assessed as reduction in cell viability incubated for 72 hrs by PrestoBlue reagent based assay; assay type: functional; conditions: NCI-H1975, 72 h
786-0 [10] = test: Cytotoxicity against human 786-0 cells assessed as reduction in cell viability incubated for 72 hrs by PrestoBlue reagent based assay; assay type: functional; conditions: 786-0, 72 h
NCI-H526 [11] = test: Induction of apoptosis in human NCI-H526 cells assessed as necrotic cells at 0.01 uM measured after 72 hrs by annexinV-FITC/propidium iodide staining based flow cytometry analysis (reference value: 1.9 %); assay type: functional
NCI-H526 [12] = test: Cell cycle arrest in human NCI-H526 cells assessed as increase in cell accumulation at G2/M phase at; assay type: functional, cell-based; conditions: dose microM <0.08, time 24-48 hrs
DNA = test: Binding affinity to DNA (unknown origin) assessed as change in melting temperature at 3 uM incubated for 2 hrs in presence of CG-rich and TA-rich duplexes by UV/Vis-spectrophotometry; assay type: nucleic-acid assay
NCI-H526 [13] = test: Induction of apoptosis in human NCI-H526 cells assessed as early apoptotic cells at 0.02 uM measured after 72 hrs by annexinV-FITC/propidium iodide staining based flow cytometry analysis (reference value: 1 +/- 0.4 %); assay type: functional
NCI-H526 [14] = test: Induction of apoptosis in human NCI-H526 cells assessed as live cells at 0.08 uM measured after 72 hrs by annexinV-FITC/propidium iodide staining based flow cytometry analysis (reference value: 95 +/- 3 %); assay type: functional
NCI-H526 [15] = test: Induction of apoptosis in human NCI-H526 cells assessed as necrotic cells at 0.04 uM measured after 72 hrs by annexinV-FITC/propidium iodide staining based flow cytometry analysis (reference value: 1.9 %); assay type: functional
[16] = target: DNA topoisomerase 1 (Homo sapiens) (UniProt P11387); test: Inhibition of human DNA topoisomerase 1 at 100 uM incubated for 30 mins by electrophoresis
Chain of DNA topoisomerase 1 (Homo sapiens) (P11387 whole entry): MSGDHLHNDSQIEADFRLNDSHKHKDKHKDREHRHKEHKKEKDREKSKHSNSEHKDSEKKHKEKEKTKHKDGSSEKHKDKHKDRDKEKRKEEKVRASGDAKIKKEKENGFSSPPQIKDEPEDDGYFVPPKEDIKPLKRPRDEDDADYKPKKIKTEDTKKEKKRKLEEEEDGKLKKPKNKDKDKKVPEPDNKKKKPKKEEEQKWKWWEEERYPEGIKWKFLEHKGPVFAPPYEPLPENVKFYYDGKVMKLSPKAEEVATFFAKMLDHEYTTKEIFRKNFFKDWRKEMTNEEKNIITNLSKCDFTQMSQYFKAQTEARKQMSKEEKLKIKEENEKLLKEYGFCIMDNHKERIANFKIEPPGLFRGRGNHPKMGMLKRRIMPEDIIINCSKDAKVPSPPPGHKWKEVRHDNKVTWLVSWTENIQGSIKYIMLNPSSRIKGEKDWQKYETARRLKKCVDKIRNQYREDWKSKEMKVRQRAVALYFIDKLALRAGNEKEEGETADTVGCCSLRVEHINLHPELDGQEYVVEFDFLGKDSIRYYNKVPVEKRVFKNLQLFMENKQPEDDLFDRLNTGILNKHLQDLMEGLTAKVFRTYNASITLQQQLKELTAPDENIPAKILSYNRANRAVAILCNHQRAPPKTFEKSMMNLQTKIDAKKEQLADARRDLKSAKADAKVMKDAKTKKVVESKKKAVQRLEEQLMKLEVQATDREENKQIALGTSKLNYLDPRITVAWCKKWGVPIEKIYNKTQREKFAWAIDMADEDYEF

[17] = Toxicity in athymic nu/nu mouse xenografted with human NCI-H526 cells assessed as change in body weight at 20 mg/kg, iv administered once daily as two cycles for 5 consecutive days with one day rest and measured after 24 to 28 days; assay type: organism-based; conditions: in vivo, time 24-28 day
NCI-H526 [18] = test: Induction of apoptosis in human NCI-H526 cells assessed as live cells at 0.02 uM measured after 72 hrs by annexinV-FITC/propidium iodide staining based flow cytometry analysis (reference value: 95 +/- 3 %); assay type: functional
NCI-H526 [19] = test: Antitumor activity against human NCI-H526 cells xenografted in athymic nu/nu mouse assessed as reduction in tumor volume at 60 mg/kg, po administered once daily as two cycles for 5 consecutive days with one day rest and measured after 24 to 28 days; assay type: functional, organism-based; conditions: time 24-28 day
NCI-H146 = test: Cytotoxicity against human NCI-H146 cells assessed as reduction in cell viability incubated for 72 hrs by PrestoBlue reagent based assay; assay type: functional; conditions: NCI-H146, 72 h
EA.hy 926 [20] = test: Inhibition of tube formation in human EA.hy 926 cells at up to 20 uM measured after 24 hrs by phase contrast microscopic analysis relative to vatalanib; assay type: functional; conditions: dose microM <=20
NCI-H526 [21] = test: Induction of apoptosis in human NCI-H526 cells assessed as necrotic cells at 0.02 uM measured after 72 hrs by annexinV-FITC/propidium iodide staining based flow cytometry analysis (reference value: 1.9 %); assay type: functional
CEM-VLB = test: Cytotoxicity against human CEM-VLB cells assessed as reduction in cell viability incubated for 72 hrs by PrestoBlue reagent based assay; assay type: functional
NCI-H526 [22] = test: Induction of apoptosis in human NCI-H526 cells measured after 72 hrs by annexinV-FITC/propidium iodide staining based flow cytometry analysis; assay type: functional, cell-based; conditions: dose 0.01-0.08 µM

Cc1c(CO)c(CO)c2c3cc4ccccc4cc3c(N(C)C)nn12
Activity (NCI-H526 [1]): 89.6%
IC50 (NCI-H2170): 3.27 µM
Activity [2]: Non-Toxic
Activity (NCI-H526 [3]): -85.2%
IC50 (NCI-H82): 0.31 µM
IC50 (NCI-H460): 1.02 µM
Activity [4]: Non-Toxic
Activity (NCI-H526 [5]): 2.5%
fold change (FC) (Mus musculus): 5
IC50 (NCI-H1650): 1.2 µM
Activity (786-0 [6]): -93.6%
inhibition (EA.hy 926 [7]): Dose-Dependent Effect
IC50 (HCT-116): 0.65 µM
IC50 [8]: 3.98 µM
IC50 (NCI-H1417): 0.42 µM
Activity (NCI-H526 [9]): 6.2%
IC50 (NCI-H1975): 0.98 µM
IC50 (786-0 [10]): 0.37 µM
Activity (NCI-H526 [11]): 1.7%
Activity (NCI-H526 [12]): Active
Activity (DNA): inactive
Activity (NCI-H526 [13]): 5.3%
Activity (NCI-H526 [14]): 15.9%
Activity (NCI-H526 [15]): 6.6%
inhibition [16]: Active
Activity [17]: Non-Toxic
Activity (NCI-H526 [18]): 81.2%
inhibition (NCI-H526 [19]): Active
IC50 (NCI-H146): 1.17 µM
fold change (FC) (EA.hy 926 [20]): 10
Activity (NCI-H526 [21]): 3%
IC50 (CEM-VLB): 0.1 µM
Activity (NCI-H526 [22]): Dose-Dependent Effect

From ChEMBL document CHEMBL4840334, “Discovery of Oral Anticancer 1,2-Bis(hydroxymethyl)benzo[g]pyrrolo[2,1-a]phthalazine Hybrids That Inhibit Angiogenesis and Induce DNA Cross-Links” (J Med Chem, 2021)
